Molecular target: Escherichia coli DNA gyrase A/B tetramer (Escherichia coli (strain K12), UniProt P0AES4+P0AES6)
Assay: DNA gyrase supercoiling activity fluorescence polarisation assay
Format: biochemical
Details: not given
Method in brief: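 Supercoiling reactions quenched with 40 nM 5′-BODIPY-FL triplex-forming oligonucleotide probe in pH 3.5 NaCl/sodium acetate buffer; after 60 min, fluorescence anisotropy read (ex 485/em 535 nm). IC50 by nonlinear regression, normalised to 0.8% DMSO (100% activity) and 5 μM ciprofloxacin (0% activity).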

Row | Structure (SMILES) | IC50 [µM]
1 | C[C@@H]1CN2c3c(cc4c(N5CCCCC5)noc4c3F)CC3(C(=O)NC(=O)NC3=O)[C@H]2[C@H](C)O1 (relative stereo) [Example 21] | 2.4
2 | Cc1noc2c(F)c3c(cc12)CC1(C(=O)NC(=O)NC1=O)[C@H]1[C@H](C)O[C@H](C)CN31 (relative stereo) [Example 2, (2R,4S,4aS)-rel-11-fluoro-2,4,8-trimethyl-1,2,4,4a-tetrahydro-2′H,6H-spiro[isoxazolo[4,5-g][1,4]oxazino[4,3-a]quinoline-5,5′-pyrimidine]-2′,4′,6′(1′H,3′H)-trione] | 0.4

Same assay, conditions: 5 nM enzyme, relaxed plasmid, 0.3 mM ATP, ambient temperature; read-out: E. coli DNA gyrase supercoiling IC50

Row | Structure (SMILES) | IC50 [µM]
3 | C[C@@H]1CN2c3c(cc4c(C(=O)N5CC(F)(F)C5)noc4c3F)CC3(C(=O)NC(=O)NC3=O)[C@H]2[C@H](C)O1 (relative stereo) [Example 95, (2R,4S,4aS)-rel-8-(3,3-difluoroazetidine-1-carbonyl)-11-fluoro-2,4-dimethyl-2,4,4a,6-tetrahydro-1H,1′H-spiro[isoxazolo[4,5-g][1,4]oxazino[4,3-a]quinoline-5,5′-pyrimidine]-2′,4′,6′(3′H)-trione] | 0.3
4 | C[C@@H]1CN2c3c(cc4c(-c5ccccn5)noc4c3F)CC3(C(=O)NC(=O)NC3=O)[C@H]2[C@H](C)O1 (relative stereo) [Example 5, (2R,4S,4aS)-rel-11-fluoro-2,4-dimethyl-8-pyridin-2-yl-1,2,4,4a-tetrahydro-2′H,6H-spiro[isoxazolo[4,5-g][1,4]oxazino[4,3-a]quinoline-5,5′-pyrimidine]-2′,4′,6′(1′H,3′H)-trione] | 0.2
5 | COC1CCN(C(=O)c2noc3c(F)c4c(cc23)CC2(C(=O)NC(=O)NC2=O)[C@H]2[C@H](C)O[C@H](C)CN42)CC1 (relative stereo) [Example 151, (2R,4S,4aS)-rel-11-fluoro-8-(4-methoxypiperidine-1-carbonyl)-2,4-dimethyl-2,4,4a,6-tetrahydro-1H,1′H-spiro[isoxazolo[4,5-g][1,4]oxazino[4,3-a]quinoline-5,5′-pyrimidine]-2′,4′,6′(3′H)-trione] | 5.5
6 | Cc1noc2c(F)c3c(cc12)CC1(C(=O)NC(=O)NC1=O)[C@@H]1[C@@H](C)O[C@@H](C)CN31 [Example 2(a), (2S,4R,4aR)-11-fluoro-2,4,8-trimethyl-2,4,4a,6-tetrahydro-1′H,1′H-spiro[isoxazolo[4,5-g][1,4]oxazino[4,3-a]quinoline-5,5′-pyrimidine]-2′,4′,6′(3′H)-trione] | 83
7 | CSc1nccc(-c2noc3c(F)c4c(cc23)CC2(C(=O)NC(=O)NC2=O)[C@H]2[C@H](C)O[C@H](C)CN42)n1 [Example 168, (2R,4S,4aS)-11-fluoro-2,4-dimethyl-8-(2-(methylthio)pyrimidin-4-yl)-2,4,4a,6-tetrahydro-1H,1′H-spiro[isoxazolo[4,5-g][1,4]oxazino[4,3-a]quinoline-5,5′-pyrimidine]-2′,4′,6′(3′H)-trione] | 0.6
8 | COC[C@@H]1CN2c3c(cc4c(C)noc4c3F)CC3(C(=O)NC(=O)NC3=O)[C@H]2[C@H](C)O1 (relative stereo) [Example 106, (2S,4S,4aS)-rel-11-fluoro-2-(methoxymethyl)-4,8-dimethyl-1,2,4,4a-tetrahydro-2′H,6H-spiro[1,4-oxazino[4,3-a][1,2]oxazolo[4,5-g]quinoline-5,5′-pyrimidine]-2′,4′,6′(1′H,3′H)-trione] | 1.1
9 | C[C@@H]1CN2c3c(cc4c(NCC5CC5)noc4c3F)CC3(C(=O)NC(=O)NC3=O)[C@H]2[C@H](C)O1 (relative stereo) [Example 17, (2R,4S,4aS)-rel-8-[(cyclopropylmethyl)amino]-11-fluoro-2,4-dimethyl-1,2,4,4a-tetrahydro-2′H,6H-spiro[1,4-oxazino[4,3-a][1,2]oxazolo[4,5-g]quinoline-5,5′-pyrimidine]-2′,4′,6′(1′H,3′H)-trione] | 1.4
10 | C[C@@H]1CN2c3c(cc4c(-c5nccnc5Cl)noc4c3F)CC3(C(=O)NC(=O)NC3=O)[C@H]2[C@H](C)O1 (relative stereo) [Example 78, (2R,4S,4aS)-rel-8-(3-chloropyrazin-2-yl)-11-fluoro-2,4-dimethyl-2,4,4a,6-tetrahydro-1H,1′H-spiro[isoxazolo[4,5-g][1,4]oxazino[4,3-a]quinoline-5,5′-pyrimidine]-2′,4′,6′(3′H)-trione] | 0.8
11 | Cc1csc(-c2noc3c(Cl)c4c(nc23)CC2(C(=O)NC(=O)NC2=O)[C@H]2[C@H](C)O[C@H](C)CN42)n1 (relative stereo) [Example 113, (2R,4S,4aS)-rel-11-Chloro-2,4-dimethyl-8-(4-methylthiazol-2-yl)-2,4,4a,6-tetrahydro-1H,1′H-spiro[isoxazolo[4,5-g][1,4]oxazino[4,3-a][1,5]naphthyridine-5,5′-pyrimidine]-2′,4′,6′(3′H)-trione] | 2.5
12 | C[C@@H]1CN2c3c(cc4c(C(=O)NCC5CCCCC5)noc4c3F)CC3(C(=O)NC(=O)NC3=O)[C@H]2[C@H](C)O1 (relative stereo) [Example 156, (2R,4S,4aS)-rel-N-(cyclohexylmethyl)-11-fluoro-2,4-dimethyl-2′,4′,6′-trioxo-2,2′,3′,4,4a,4′,6,6′-octahydro-1H,1′H-spiro[isoxazolo[4,5-g][1,4]oxazino[4,3-a]quinoline-5,5′-pyrimidine]-8-carboxamide] | 1.5
13 | C[C@@H]1CN2c3c(cc4c(C5CC5)noc4c3Cl)CC3(C(=O)NC(=O)NC3=O)[C@H]2[C@H](C)O1 (racemic) [Example 39, (2R,4S,4 aS)-rel-11-chloro-8-cyclopropyl-2,4-dimethyl-1,2,4,4a-tetrahydro-2′H,6H-spiro[1,4-oxazino[4,3-a][1,2]oxazolo[4,5-g]quinoline-5,5′-pyrimidine]-2′,4′,6′(1′H,3′H)-trione] | 0.6
14 | C[C@@H]1CN2c3c(cc4c(NCC5CCCCC5)noc4c3F)CC3(C(=O)NC(=O)NC3=O)[C@H]2[C@H](C)O1 (relative stereo) [Example 18, (2R,4S,4aS)-rel-8-[(cyclohexylmethyl)amino]-11-fluoro-2,4-dimethyl-1,2,4,4a-tetrahydro-2′H,6H-spiro[1,4-oxazino[4,3-a][1,2]oxazolo[4,5-g]quinoline-5,5′-pyrimidine]-2′,4′,6′(1′H,3′H)-trione] | 2.9
15 | C[C@@H]1CN2c3c(cc4c(C(F)F)noc4c3F)CC3(C(=O)NC(=O)NC3=O)[C@H]2[C@H](C)O1 [Example 93(b), (2R,4S,4aS)-8-(difluoromethyl)-11-fluoro-2,4-dimethyl-2,4,4a,6-tetrahydro-1H,1′H-spiro[isoxazolo[4,5-g][1,4]oxazino[4,3-a]quinoline-5,5′-pyrimidine]-2′,4′,6′(3′H)-trione] | 0.4
16 | C[C@@H]1CN2c3c(cc4c(C(=O)NCC(F)F)noc4c3F)CC3(C(=O)NC(=O)NC3=O)[C@H]2[C@H](C)O1 [Example 94(b), (2R,4S,4aS)—N-(2,2-difluoroethyl)-11-fluoro-2,4-dimethyl-2′,4′,6′-trioxo-2,2′,3′,4,4a,4′,6,6′-octahydro-1H,1′H-spiro[isoxazolo[4,5-g][1,4]oxazino[4,3-a]quinoline-5,5′-pyrimidine]-8-carboxamide] | 0.8
17 | C[C@H]1CN2c3c(cc4c(C(F)F)noc4c3F)CC3(C(=O)NC(=O)NC3=O)[C@@H]2[C@@H](C)O1 [Example 93(a), (2S,4R,4aR)-8-(difluoromethyl)-11-fluoro-2,4-dimethyl-2,4,4a,6-tetrahydro-1H,1′H-spiro[isoxazolo[4,5-g][1,4]oxazino[4,3-a]quinoline-5,5′-pyrimidine]-2′,4′,6′(3′H)-trione] | 56
18 | C[C@@H]1CN2c3c(cc4c(N5CCCC5)noc4c3F)CC3(C(=O)NC(=O)NC3=O)[C@H]2[C@H](C)O1 (relative stereo) [Example 25, (2R,4S,4aS)-rel-11-fluoro-2,4-dimethyl-8-(pyrrolidin-1-yl)-1,2,4,4a-tetrahydro-2′H,6H-spiro[isoxazolo[4,5-g][1,4]oxazino[4,3-a]quinoline-5,5′-pyrimidine]-2′,4′,6′(1′H,3′H)-trione] | 1.5
19 | Cc1cnn(-c2noc3c(F)c4c(cc23)CC2(C(=O)NC(=O)NC2=O)[C@H]2[C@H](C)O[C@H](C)CN42)c1 (relative stereo) [Example 60, (2R,4S,4aS)-rel-11-fluoro-2,4-dimethyl-8-(4-methyl-1H-pyrazol-1-yl)-1,2,4,4a-tetrahydro-2′H,6H-spiro[1,4-oxazino[4,3-a][1,2]oxazolo[4,5-g]quinoline-5,5′-pyrimidine]-2′,4′,6′(1′H,3′H)-trione] | 1.2
20 | C[C@@H]1CN2c3c(cc4c(-n5ccnc5)noc4c3F)CC3(C(=O)NC(=O)NC3=O)[C@H]2[C@H](C)O1 (relative stereo) [Example 58, (2R,4S,4aS)-rel-11-fluoro-8-(1H-imidazol-1-yl)-2,4-dimethyl-1,2,4,4a-tetrahydro-2′H,6H-spiro[1,4-oxazino[4,3-a][1,2]oxazolo[4,5-g]quinoline-5,5′-pyrimidine]-2′,4′,6′(1′H,3′H)-trione] | 0.5
21 | C[C@H]1CN2c3c(cc4c(-c5cccnn5)noc4c3F)CC3(C(=O)NC(=O)NC3=O)[C@@H]2[C@@H](C)O1 (relative stereo) [Example 73, (2R,4S,4aS)-rel-11-fluoro-2,4-dimethyl-8-(pyridazin-3-yl)-1,2,4,4a-tetrahydro-2′H,6H-spiro[1,4-oxazino[4,3-a][1,2]oxazolo[4,5-g]quinoline-5,5′-pyrimidine]-2′,4′,6′(1′H,3′H)-trione] | 0.5
22 | C[C@@H]1CN2c3c(cc4c(C5CC5)noc4c3F)CC3(C(=O)NC(=O)NC3=O)[C@H]2[C@H](C)O1 (relative stereo) [Example 4, (2R,4S,4aS)-rel-8-cyclopropyl-11-fluoro-2,4-dimethyl-1,2,4,4a-tetrahydro-2′H,6H-spiro[isoxazolo[4,5-g][1,4]oxazino[4,3-a]quinoline-5,5′-pyrimidine]-2′,4′,6′(1′H,3′H)-trione] | 0.3
